How the values were obtained:
male Wistar rats = test: Cook-Davidson conflict procedure (anxiolytic effects); type: in vivo, rat; conditions: e.g. as determined in the Cook-Davidson model
From the text: Anxiolytic effects are observed, for example, by measuring the antagonism of pentylenetetrazol discriminative stimuli in the rat and according to the Cook-Davidson conflict procedure, using male Wistar rats, e.g. as described in Drug Development Research 6: 313-325 (1985).

benzodiazepine receptor = benzodiazepine receptor binding and agonist/antagonist profile (3H-flunitrazepam displacement, rat brain membranes)
Description: The benzodiazepine receptor binding properties indicative of the nervous system regulatory activity of said new compounds are determined in the receptor binding assay in vitro, e.g. similarly to that in Nature 266, 732 (1977) or Proc. Nat. Acad. Sci. USA 74, 3805 (1977). When tritiated flunitrazepam is used, the interaction of other drugs with said receptor can be readily assessed thus: Synaptosnal membranes from rat fore-brain are incubated at 0°-5° for 30 minutes with 0.5 nM tritiated flunitrazepam and various concentrations of the test substance in a buffer medium maintained at pH 7.5. […] The membranes, containing the receptors with various amounts of tritiated flunitrazepam, are filtered onto glass fiber filters, which are then analyzed in a liquid scintillation counter. […]
The pharmacological agonist and/or antagonist/inverse agonist profile of the benzodiazepine receptor modulators of the invention can also be determined by measuring their effect in a rat brain membrane preparation on the displacement of ^3 H-flunitrazepam in the presence or absence of gamma-aminobutric acid (GABA), on the enhancement of ^3 H-muscimol binding by etazolate, or on the binding of ^35 S-butyl bicyclophosphorothionate (TBPS), e.g. as described in J. Pharmacol. Exp. Ther. 231, 572 (1984).

rat = test: discrimination test in the rat; type: in vivo; conditions: test compounds administered orally
From the text: Illustrative thereof is the compound of example 1.
The diazepam discrimination test, can also be used to determine benzodiazepine antagonist properties.

Row | pharmacological profile at the benzodiazepine receptor (benzodiazepine receptor) | SMILES | anxiolytic properties (male Wistar rats) | generalization to the discrimination test (rat)
1 | benzodiazepine agonist profile | COc1ccc(-n2nc3c4c([nH]cc-3c2=O)CCCCCC4)cc1 [Example 1, 2-(4-methoxyphenyl)-2,3,6,7,8,9,10,11-octahydrocycloocta[b]pyrazolo[3,4-d]pyridin-3(5H)-one] | demonstrate anxiolytic properties | do not generalize to the discrimination test
2 | benzodiazepine agonist profile | O=c1c2c[nH]c3c(c-2nn1-c1ccc(Cl)cc1)CCCCCC3 [Example 2b, 2-(4-chlorophenyl)-2,3,6,7,8,9,10,11-octahydrocycloocta[b]pyrazolo[3,4-d]-pyridin-3(5H)-one] |  | 

From patent publication US4826854A, “Certain cycloalka-(b)-pyrazolo(3,4-d)-pyridin-3-one derivatives” (Ciba-Geigy Corporation, priority 1987, dated 1989)
